According to ChEMBL document CHEMBL4680155, “One-pot synthesis and molecular docking of some new spiropyranindol-2-one derivatives as immunomodulatory agents and in vitro antimicrobial potential with DNA gyrase inhibitor” (Eur J Med Chem, 2020):
≈ marks a conversion by molar mass, not a printed value.

Assays:
Enterococcus faecalis [1] = test: Antibacterial activity against Enterococcus faecalis ATCC 29212 assessed as diameter of inhibition zone at 0.5 mg/ml incubated for 24 hrs by agar diffusion method; assay type: functional; conditions: read-out: DIZ
Staphylococcus aureus [2] = test: Antibacterial activity against Staphylococcus aureus ATCC 29213 assessed as diameter of inhibition zone at 0.5 mg/ml incubated for 24 hrs by agar diffusion method; assay type: functional; conditions: read-out: DIZ
Escherichia coli [3] = test: Antibacterial activity against Escherichia coli ATCC 25922 assessed as diameter of inhibition zone at 0.5 mg/ml incubated for 24 hrs by agar diffusion method; assay type: functional; conditions: read-out: DIZ
Salmonella typhimurium [4] = test: Antibacterial activity against Salmonella typhi ATCC 6539 assessed as diameter of inhibition zone at 0.5 mg/ml incubated for 24 hrs by agar diffusion method; assay type: functional, Salmonella enterica subsp. enterica serovar Typhimurium; conditions: Salmonella enterica, read-out: DIZ
Candida albicans [5] = test: Antifungal activity against Candida albicans ATCC 10231 assessed as diameter of inhibition zone at 0.5 mg/ml incubated for 24 hrs by agar diffusion method; assay type: functional; conditions: read-out: DIZ
Aspergillus brasiliensis [6] = test: Antifungal activity against Aspergillus brasiliensis ATCC 16404 assessed as diameter of inhibition zone at 0.5 mg/ml incubated for 72 hrs by agar diffusion method; assay type: functional; conditions: read-out: DIZ
Enterococcus faecalis [7] = test: Antibacterial activity against Enterococcus faecalis ATCC 29212 assessed as reduction in bacterial growth incubated for 1 day by paper disk diffusion method; assay type: functional; conditions: ATCC 29212, 24 h
Staphylococcus aureus [8] = test: Antibacterial activity against Staphylococcus aureus ATCC 29213 assessed as reduction in bacterial growth incubated for 1 day by paper disk diffusion method; assay type: functional; conditions: ATCC 29213, 24 h
Escherichia coli [9] = test: Antibacterial activity against Escherichia coli ATCC 25922 assessed as reduction in bacterial growth incubated for 1 day by paper disk diffusion method; assay type: functional; conditions: ATCC 25922, 24 h
Salmonella typhimurium [10] = test: Antibacterial activity against Salmonella typhi ATCC 6539 assessed as reduction in bacterial growth incubated for 1 day by paper disk diffusion method; assay type: functional, Salmonella enterica subsp. enterica serovar Typhimurium; conditions: Salmonella enterica, ATCC 6539, 24 h
Candida albicans [11] = test: Antifungal activity against Candida albicans ATCC 10231 assessed as reduction in bacterial growth incubated for 1 day by paper disk diffusion method; assay type: functional; conditions: ATCC 10231, 24 h
Aspergillus brasiliensis [12] = test: Antifungal activity against Aspergillus brasiliensis ATCC 16404 assessed as reduction in bacterial growth incubated for 3 days by paper disk diffusion method; assay type: functional; conditions: ATCC 16404, 72 h, time 3 day
Enterococcus faecalis [13] = test: Bactericidal activity against Enterococcus faecalis ATCC 29212 incubated for 24 hrs followed by transferring to freshly prepared broth medium and measured after 24 hrs by broth microdilution assay; assay type: functional; conditions: time 48 hrs
Staphylococcus aureus [14] = test: Bactericidal activity against Staphylococcus aureus ATCC 29213 incubated for 24 hrs followed by transferring to freshly prepared broth medium and measured after 24 hrs by broth microdilution assay; assay type: functional; conditions: time 48 hrs
Escherichia coli [15] = test: Bactericidal activity against Escherichia coli ATCC 25922 incubated for 24 hrs followed by transferring to freshly prepared broth medium and measured after 24 hrs by broth microdilution assay; assay type: functional; conditions: time 48 hrs
Salmonella typhimurium [16] = test: Bactericidal activity against Salmonella typhi ATCC 6539 incubated for 24 hrs followed by transferring to freshly prepared broth medium and measured after 24 hrs by broth microdilution assay; assay type: functional, Salmonella enterica subsp. enterica serovar […]; conditions: Salmonella enterica, time 48 hrs
Candida albicans [17] = test: Fungicidal activity against Candida albicans ATCC 10231 incubated for 24 hrs followed by transferring to freshly prepared broth medium and measured after 24 hrs by broth microdilution assay; assay type: functional; conditions: time 48 hrs
Aspergillus brasiliensis [18] = test: Fungicidal activity against Aspergillus brasiliensis ATCC 16404 incubated for 72 hrs followed by transferring to freshly prepared broth medium and measured after 24 hrs by broth microdilution assay; assay type: functional; conditions: time 96 hrs
Staphylococcus aureus [19] = test: Antibacterial activity against multidrug resistant Staphylococcus aureus ATCC 43300 assessed as diameter of inhibition zone at 0.5 mg/ml incubated for 24 hrs by agar diffusion method; assay type: functional; conditions: read-out: DIZ
Staphylococcus aureus [20] = test: Antibacterial activity against multidrug resistant Staphylococcus aureus ATCC 33591 assessed as diameter of inhibition zone at 0.5 mg/ml incubated for 24 hrs by agar diffusion method; assay type: functional; conditions: read-out: DIZ
Escherichia coli [21] = test: Antibacterial activity against multidrug resistant Escherichia coli ATCC BAA-196 assessed as diameter of inhibition zone at 0.5 mg/ml incubated for 24 hrs by agar diffusion method; assay type: functional; conditions: read-out: DIZ
Pseudomonas aeruginosa [22] = test: Antibacterial activity against multidrug resistant Pseudomonas aeruginosa ATCC BAA-2111 assessed as diameter of inhibition zone at 0.5 mg/ml incubated for 24 hrs by agar diffusion method; assay type: functional; conditions: read-out: DIZ
Staphylococcus aureus [23] = test: Antibacterial activity against multidrug resistant Staphylococcus aureus ATCC 43300 assessed as reduction in bacterial growth incubated for 1 day by paper disk diffusion method; assay type: functional; conditions: ATCC 43300, 24 h
Staphylococcus aureus [24] = test: Antibacterial activity against multidrug resistant Staphylococcus aureus ATCC 33591 assessed as reduction in bacterial growth incubated for 1 day by paper disk diffusion method; assay type: functional; conditions: ATCC 33591, 24 h
Escherichia coli [25] = test: Antibacterial activity against multidrug resistant Escherichia coli ATCC BAA-196 assessed as reduction in bacterial growth incubated for 1 day by paper disk diffusion method; assay type: functional; conditions: ATCC BAA-196, 24 h
Pseudomonas aeruginosa [26] = test: Antibacterial activity against multidrug resistant Pseudomonas aeruginosa ATCC BAA-2111 assessed as reduction in bacterial growth incubated for 1 day by paper disk diffusion method; assay type: functional; conditions: ATCC BAA-2111, 24 h
Staphylococcus aureus [27] = test: Bactericidal activity against Staphylococcus aureus ATCC 43300 incubated for 24 hrs followed by transferring to freshly prepared broth medium and measured after 24 hrs by broth microdilution assay; assay type: functional; conditions: time 48 hrs
Staphylococcus aureus [28] = test: Bactericidal activity against Staphylococcus aureus ATCC 33591 incubated for 24 hrs followed by transferring to freshly prepared broth medium and measured after 24 hrs by broth microdilution assay; assay type: functional; conditions: time 48 hrs
Escherichia coli [29] = test: Bactericidal activity against Escherichia coli ATCC BAA-196 incubated for 24 hrs followed by transferring to freshly prepared broth medium and measured after 24 hrs by broth microdilution assay; assay type: functional; conditions: time 48 hrs
Pseudomonas aeruginosa [30] = test: Bactericidal activity against Pseudomonas aeruginosa ATCC BAA-2111 incubated for 24 hrs followed by transferring to freshly prepared broth medium and measured after 24 hrs by broth microdilution assay; assay type: functional; conditions: time 48 hrs
Neutrophil = test: Immunomodulatory activity in human neutrophils infected with bacteria assessed as increase in bacterial killing by measuring reduced NBT incubated for 30 mins by NBT dye based spectrophotometry; assay type: functional; set-up: concentration or dose not given beside the values; conditions: 0.5 h
DNA gyrase = DNA gyrase (Staphylococcus aureus, UniProt P0A0K8+P20831); test: Inhibition of Staphylococcus aureus DNA gyrase using relaxed pBR322 DNA as substrate incubated for 45 mins by agarose gel electrophoresis method; assay type: protein-complex assay
Sequence of DNA gyrase (P0A0K8 whole entry): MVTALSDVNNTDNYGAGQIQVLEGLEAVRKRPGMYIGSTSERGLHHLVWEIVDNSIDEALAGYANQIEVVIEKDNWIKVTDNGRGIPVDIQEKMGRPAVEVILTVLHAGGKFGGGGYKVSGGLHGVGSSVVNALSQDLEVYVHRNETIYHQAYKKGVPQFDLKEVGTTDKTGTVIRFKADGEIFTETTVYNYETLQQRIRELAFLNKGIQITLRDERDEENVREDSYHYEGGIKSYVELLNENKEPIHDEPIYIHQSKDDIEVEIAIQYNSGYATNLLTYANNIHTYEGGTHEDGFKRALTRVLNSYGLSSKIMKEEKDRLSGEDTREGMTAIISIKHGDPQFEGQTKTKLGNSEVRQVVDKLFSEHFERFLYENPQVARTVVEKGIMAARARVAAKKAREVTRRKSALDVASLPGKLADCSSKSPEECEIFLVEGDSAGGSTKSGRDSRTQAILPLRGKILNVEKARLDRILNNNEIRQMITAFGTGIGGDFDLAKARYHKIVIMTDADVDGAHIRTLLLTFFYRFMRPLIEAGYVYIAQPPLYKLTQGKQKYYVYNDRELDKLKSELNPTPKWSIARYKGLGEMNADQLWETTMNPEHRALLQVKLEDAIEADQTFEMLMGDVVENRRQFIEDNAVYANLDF
Sequence of DNA gyrase (P20831 whole entry): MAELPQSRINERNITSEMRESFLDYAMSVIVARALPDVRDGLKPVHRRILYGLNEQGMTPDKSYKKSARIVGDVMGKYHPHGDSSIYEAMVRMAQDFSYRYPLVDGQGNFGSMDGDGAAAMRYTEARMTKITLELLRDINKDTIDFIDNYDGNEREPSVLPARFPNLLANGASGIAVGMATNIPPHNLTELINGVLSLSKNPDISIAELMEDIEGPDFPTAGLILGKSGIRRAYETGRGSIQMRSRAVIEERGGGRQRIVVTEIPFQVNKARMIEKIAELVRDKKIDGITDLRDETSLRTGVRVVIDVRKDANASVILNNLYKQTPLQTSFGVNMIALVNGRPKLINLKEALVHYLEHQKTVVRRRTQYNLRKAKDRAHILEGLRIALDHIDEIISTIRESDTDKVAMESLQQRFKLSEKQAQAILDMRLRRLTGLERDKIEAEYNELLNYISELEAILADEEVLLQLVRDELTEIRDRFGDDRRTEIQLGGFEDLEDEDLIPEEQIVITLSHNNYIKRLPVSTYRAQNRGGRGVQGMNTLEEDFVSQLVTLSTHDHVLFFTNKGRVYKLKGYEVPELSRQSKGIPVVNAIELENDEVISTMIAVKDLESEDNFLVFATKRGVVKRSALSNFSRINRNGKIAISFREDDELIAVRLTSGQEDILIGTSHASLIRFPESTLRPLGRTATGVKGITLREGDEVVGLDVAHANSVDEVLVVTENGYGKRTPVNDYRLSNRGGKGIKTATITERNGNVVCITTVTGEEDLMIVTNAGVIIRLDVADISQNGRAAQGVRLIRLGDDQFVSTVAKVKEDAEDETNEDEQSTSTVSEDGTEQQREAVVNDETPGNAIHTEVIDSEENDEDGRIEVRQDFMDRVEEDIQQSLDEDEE

SMILES | zone of inhibition at 500 µg/mL (Enterococcus faecalis [1]) [mm] | zone of inhibition at 500 µg/mL (Staphylococcus aureus [2]) [mm] | zone of inhibition at 500 µg/mL (Escherichia coli [3]) [mm] | zone of inhibition at 500 µg/mL (Salmonella typhimurium [4]) [mm] | zone of inhibition at 500 µg/mL (Candida albicans [5]) [mm] | zone of inhibition at 500 µg/mL (Aspergillus brasiliensis [6]) [mm] | MIC (Enterococcus faecalis [7]) [µg/mL] | MIC (Staphylococcus aureus [8]) [µg/mL] | MIC (Escherichia coli [9]) [µg/mL] | MIC (Salmonella typhimurium [10]) [µg/mL] | MIC (Candida albicans [11]) [µg/mL] | MIC (Aspergillus brasiliensis [12]) [µg/mL] | MBC (Enterococcus faecalis [13]) [µg/mL] | MBC (Staphylococcus aureus [14]) [µg/mL] | MBC (Escherichia coli [15]) [µg/mL] | MBC (Salmonella typhimurium [16]) [µg/mL] | MFC (Candida albicans [17]) [µg/mL] | MFC (Aspergillus brasiliensis [18]) [µg/mL] | zone of inhibition at 500 µg/mL (Staphylococcus aureus [19]) [mm] | zone of inhibition at 500 µg/mL (Staphylococcus aureus [20]) [mm] | other results
CCOC(=O)/C(C#N)=C1\C(=O)Nc2ccc(S(=O)(=O)N3CCOCC3)cc21 | 24 | 25 | 26 | 24 | 23 | 18 | 3.9 (≈ 9.96 µM) | 15.6 (≈ 39.9 µM) | 3.9 (≈ 9.96 µM) | 31.2 (≈ 79.8 µM) | 6.25 (≈ 16 µM) | 88.3 (≈ 226 µM) | 7.8 (≈ 19.9 µM) | 21.9 (≈ 55.9 µM) | 7.8 (≈ 19.9 µM) | 62.5 (≈ 160 µM) | 10.6 (≈ 27.1 µM) | 124 (≈ 316 µM) | 25 | 25 | zone of inhibition at 500 µg/mL (Escherichia coli [21]): 26 mm; zone of inhibition at 500 µg/mL (Pseudomonas aeruginosa [22]): 24 mm; MIC (Staphylococcus aureus [23]): 1.95 µg/mL (≈ 4.98 µM); MIC (Staphylococcus aureus [24]): 1.95 µg/mL (≈ 4.98 µM); MIC (Escherichia coli [25]): 1.57 µg/mL (≈ 4.01 µM); MIC (Pseudomonas aeruginosa [26]): 3.9 µg/mL (≈ 9.96 µM); MBC (Staphylococcus aureus [27]): 3.12 µg/mL (≈ 7.97 µM); MBC (Staphylococcus aureus [28]): 3.7 µg/mL (≈ 9.45 µM); MBC (Escherichia coli [29]): 3.14 µg/mL (≈ 8.02 µM); MBC (Pseudomonas aeruginosa [30]): 7.8 µg/mL (≈ 19.9 µM); Activity (Neutrophil): 152.3%; IC50 (DNA gyrase): 27 µM
CC(=O)C1=C(c2ccccc2)OC(N)=C(C#N)C12C(=O)Nc1ccc(S(=O)(=O)N3CCOCC3)cc12 (stereo unspecified) | 26 | 24 | 23 | 22 | 23 | 20 | 12.5 (≈ 24.7 µM) | 17.8 (≈ 35.1 µM) | 12.5 (≈ 24.7 µM) | 62.5 (≈ 123 µM) | 15.6 (≈ 30.8 µM) | 71.8 (≈ 142 µM) | 20 (≈ 39.5 µM) | 23.1 (≈ 45.6 µM) | 21.2 (≈ 42 µM) | 81.2 (≈ 160 µM) | 31.2 (≈ 61.7 µM) | 108 (≈ 213 µM) | 25 | 26 | zone of inhibition at 500 µg/mL (Escherichia coli [21]): 23 mm; zone of inhibition at 500 µg/mL (Pseudomonas aeruginosa [22]): 22 mm; MIC (Staphylococcus aureus [23]): 0.97 µg/mL (≈ 1.91 µM); MIC (Staphylococcus aureus [24]): 0.97 µg/mL (≈ 1.91 µM); MIC (Escherichia coli [25]): 6.25 µg/mL (≈ 12.3 µM); MIC (Pseudomonas aeruginosa [26]): 4.44 µg/mL (≈ 8.77 µM); MBC (Staphylococcus aureus [27]): 145 µg/mL (≈ 286 µM); MBC (Staphylococcus aureus [28]): 1.94 µg/mL (≈ 3.83 µM); MBC (Escherichia coli [29]): 5.85 µg/mL (≈ 11.5 µM); MBC (Pseudomonas aeruginosa [30]): 6.66 µg/mL (≈ 13.1 µM); Activity (Neutrophil): 123.5%; IC50 (DNA gyrase): 24.8 µM
CC(=O)C1=C(C)OC(N)=C(C#N)C12C(=O)Nc1ccc(S(=O)(=O)N3CCOCC3)cc12 (stereo unspecified) | 20 | 22 | 21 | 19 | 21 | 14 | 17.8 (≈ 40 µM) | 71.1 (≈ 160 µM) | 15.6 (≈ 35.1 µM) | 31.2 (≈ 70.3 µM) | 7.81 (≈ 17.6 µM) | 125 (≈ 281 µM) | 26.6 (≈ 60 µM) | 85.3 (≈ 192 µM) | 23.4 (≈ 52.7 µM) | 50 (≈ 112 µM) | 15.6 (≈ 35.1 µM) | 150 (≈ 337 µM) | 21 | 20 | zone of inhibition at 500 µg/mL (Escherichia coli [21]): 22 mm; zone of inhibition at 500 µg/mL (Pseudomonas aeruginosa [22]): 18 mm; MIC (Staphylococcus aureus [23]): 7.81 µg/mL (≈ 17.6 µM); MIC (Staphylococcus aureus [24]): 7.81 µg/mL (≈ 17.6 µM); MIC (Escherichia coli [25]): 6.25 µg/mL (≈ 14.1 µM); MIC (Pseudomonas aeruginosa [26]): 8.88 µg/mL (≈ 20 µM); MBC (Staphylococcus aureus [27]): 12.5 µg/mL (≈ 28.1 µM); MBC (Staphylococcus aureus [28]): 9.37 µg/mL (≈ 21.1 µM); MBC (Escherichia coli [29]): 12.5 µg/mL (≈ 28.1 µM); MBC (Pseudomonas aeruginosa [30]): 17.8 µg/mL (≈ 40 µM); Activity (Neutrophil): 112.9%; IC50 (DNA gyrase): 25.1 µM
